Results from patent US10501479B2, “Benzenesulfonyl-asymmetric ureas and medical uses thereof” (HELSINN HEALTHCARE SA, priority 2016, dated 2019).
pEC50, pIC50: −log10 of the molar value. Values joined by “and” are separate entries in the source; they are usually repeats but may differ in a detail not shown here. Equal entries are not always repeated. Where two headings read alike, the source gives them in different places.

Assays:
[1] = molecular target: T1, GHSR-1a (HEK293/GHSR1a cell line) (Homo sapiens, UniProt Q92847); test: Ghrelin antagonist potency (IC50) with calcium FLIPR assay, ghrelin 10 nM; assay type: cell-based
T1 construct: expressed in transfected cells; host or cells: HEK293/GHSR1a cell line
How it was run: (§1)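 HEK293/GHSR1a cells, seeded 24 hr ahead and loaded with calcium dye 30-60 min, were read by FLIPR fluorescence for 2 min after addition at t=20 sec. Agonism: compound alone, EC50 from dose-response. Antagonism: compound plus 10 nM ghrelin, IC50 from reduction of ghrelin response.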

[2] = Metabolic stability in mouse liver microsomes; assay type: in vitro ADME
How it was run: (§2)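 Compound incubated with human, dog, rat or mouse liver microsomes in 100 mM potassium phosphate, pH 7.4, at 37 °C. Reaction started with an NADPH regenerating system. Samples quenched at 0, 10, 30 and 90 min, and remaining compound measured by LC-MS/MS.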

[3] = molecular target: T2, recombinant human ghrelin receptor (HEK293/GRLN) (Homo sapiens, UniProt Q92847); test: Ghrelin inverse agonist potency (EC50) with IP-1 (IP-One HTRF) assay; assay type: cell-based; details: IP-1 assay
T2 construct: expressed in transfected cells
How it was run: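 HEK293/GRLN cells were seeded 18-22 hours before the test, then exposed to compound in stimulation buffer for 1 hour at 37° C, 5% CO2. IP-1 was detected by IP-One HTRF (IP1-d2 plus Tb-cryptate, 1 hour RT), reading 620 and 665 nm; the inverse agonist EC50 was derived from this.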

[4] = Plasma protein binding (PPB), human; assay type: in vitro ADME; details: read-out: PPB (H) (converted)
[5] = Plasma protein binding (PPB), mouse; assay type: in vitro ADME
[6] = Metabolic stability in human liver microsomes; assay type: in vitro ADME
How it was run: as §2

[7] = molecular target: T1, GHSR-1a (HEK293/GHSR1a cell line); test: Ghrelin agonist potency (EC50) with calcium FLIPR assay; assay type: cell-based; details: HEK293/GHSR1a, read-out: Activity EC50/EMax: EC50 (ghrelin agonist potency)
How it was run: as §1

[8] = Metabolic stability in rat liver microsomes; assay type: in vitro ADME
Experimental: (§3) Metabolic Stability Study
(§4) The metabolic stability of compounds in human, dog, rat and mouse liver microsomes was performed according the experimental conditions reported below:
(§5) • a) Prepare the following 5 stock solutions: • 1. Test compound stock solutions: dilute 10 mM solution of dextromethorphan (Dtr) in DMSO, 10 mM solution of diphenhydramine (DPA) in DMSO, 10 mM solution of omeprazole (Ome) in DMSO, 10 mM solution of verapamil (Ver) in DMSO, and 10 mM of an inverse agonist compound in DMSO to 0.25 mM solution each with acetonitrile/water (70/30). • 2. Buffer: 100 mM potassium phosphate Buffer (PBS) at pH 7.4 • 3. Liver microsomes (20 mg/ml): Thaw in 37° C. water bath quickly • 4. 2000 μL: of NADPH regenerating system (1.3 mM). Place this system on ice before use:
(§6) • 5. […] The test compound concentration in the wells, measured by LC-MS/MS, represents the concentration at time=0. • f) To determine the test compound concentration when t≠0, pre-incubate the NADPH regenerating system and the incubation plate containing the remaining 320 μL of incubation mixture (microsomes protein and test compound) for 5 minutes at 37° C. • g) Start the incubation reaction by adding 80 μL NADPH regenerating system to each well containing the remaining 320 μL incubation mixture. • h) After 10 min., 30 min., and 90 min. of incubation at 37° C., transfer 100 μL of the incubation mixture (microsomes protein, test compound, and NADPH) into the wells of a stop plate pre-filled with 300 μL of the cold quench solution. Shake well. • i) Centrifuge the stop plate at 5000×g for 10 minutes. Collect and dilute the supernatant 3 times with distilled water. Sample and analyze the test compound concentration for all the wells by LC-MS/MS. Animal PK Studies via i.v. (intravenous), p.o. (orally) and s.c. (subcutaneous) administrations

[9] = Metabolic stability in dog liver microsomes; assay type: in vitro ADME
Experimental: as §3, §4, §5, §6

[10] = Animal PK study in mouse via i.v., p.o. and s.c. administration; assay type: in vivo; details: for Vd / clearance / half-life: plasma; for clearance: read-out: PK CL i.v.
How it was run: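 Single i.v. (tail vein), s.c. (neck scruff) or p.o. (gavage) dose to mice or rats; oral vehicle 1–5% DMSO/0.5% methylcellulose, i.v./s.c. vehicle 1–5% DMSO in 20% HP-β-cyclodextrin. Plasma sampled 0.083 (i.v./s.c.) or 0.25 to 24 h, analyzed by LC-MS/MS.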

[11] = HEK293/GHSR1a, ghrelin 10 nM, read-out: Activity IC50 (ghrelin antagonist potency)
[12] = HEK293/GRLN, read-out: Activity EC50 (ghrelin inverse agonist potency)
[13] = iv, 5 mg/kg, i.v., read-out: PK t1/2 i.v.
[14] = po, 10 mg/kg, p.o., read-out: PK t1/2 p.o.

T1 sequence (Q92847 whole entry): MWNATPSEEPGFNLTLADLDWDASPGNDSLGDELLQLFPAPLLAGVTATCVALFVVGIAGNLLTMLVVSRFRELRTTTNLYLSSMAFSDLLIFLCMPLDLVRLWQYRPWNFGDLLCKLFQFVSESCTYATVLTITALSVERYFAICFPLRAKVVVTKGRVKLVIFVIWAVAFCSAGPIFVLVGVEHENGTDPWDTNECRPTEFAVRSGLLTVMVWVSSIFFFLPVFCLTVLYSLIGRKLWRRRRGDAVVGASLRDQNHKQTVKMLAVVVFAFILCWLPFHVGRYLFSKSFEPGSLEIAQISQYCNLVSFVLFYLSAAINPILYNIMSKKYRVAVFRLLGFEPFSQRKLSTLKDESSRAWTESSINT
T2 sequence (Q92847 whole entry): as above

| Structure (SMILES) | pIC50 [1, 11] | Metabolic Stability Study M = mouse [2] | pEC50 [3, 12] | fraction unbound [4] | fraction unbound [5] | Metabolic Stability Study H = human [6] | pEC50 [7] | PK F [10] | PK Vd p.o. ([10]; p.o.) | Vd ([10]; iv, 5 mg/kg) | clearance ([10]; iv, 5 mg/kg, i.v.) | half-life [10, 13] | half-life [10, 14] | also measured |
| --- | --- | --- | --- | --- | --- | --- | --- | --- | --- | --- | --- | --- | --- | --- |
| COc1cc(S(=O)(=O)Cc2ccc3c(c2)CNC3)ccc1NC(=O)NC(C)c1ccccc1F.O=C(O)C(F)(F)F (stereo not drawn) [H1420, 1-(1-(2-fluorophenyl)ethyl)-3-(4-((isoindolin-5-ylmethyl)sulfonyl)-2-methoxyphenyl)urea] | 7.66 | 50.6 µL/min/mg | 9.00 | 0.028 | 0.0461 | 17.4 µL/min/mg | < 4.52 | – | – | – | – | – | – | – |
| CC(C)(N)Cc1ccc(NS(=O)(=O)c2ccc(NC(=O)NCc3ccccc3)cc2)cc1.Cl [H0993, N-(4-(2-amino-2-methylpropyl)phenyl)-4-(3-benzylureido) benzenesulfonamide] | – | 14.3 µL/min/mg | – | – | – | 18.5 µL/min/mg | – | 0.4% | – | – | – | – | – | pIC50 ([1]; ghrelin antagonist potency, read-out: IC50 (Activity)): 6.54; Metabolic Stability Study R = rat [8]: 15.1 µL/min/mg; pEC50 ([3]; inverse agonist potency, read-out: EC50 (Activity)): 7.68; Metabolic Stability Study D = dog [9]: < 10 µL/min/mg; PK CLiv ([10]; i.v.): 35.8 mL/min/kg; PK Vdiv ([10]; i.v.): 4.31 L/kg; PK t1/2iv ([10]; i.v.): 1.39 h; PK CLpo ([10]; p.o.): 7302 mL/min/kg; PK Vdpo ([10]; p.o.): 2550 L/kg; PK t1/2po ([10]; p.o.): 4.03 h |
| COc1cc(S(=O)(=O)Cc2ccc3c(c2)CNC3)ccc1NC(=O)NC(C)c1ccccc1.Cl (stereo not drawn) [H1383, 1-(4-((isoindolin-5-ylmethyl)sulfonyl)-2-methoxyphenyl)-3-(1-phenylethyl)urea] | 7.92 | 91.9 µL/min/mg | 8.70 | – | – | 21 µL/min/mg | < 4.52 | – | – | – | – | – | – | Metabolic Stability Study R = rat [8]: 48.2 µL/min/mg; Metabolic Stability Study D = dog [9]: 27.8 µL/min/mg |
| CC(NC(=O)Nc1ccc(S(=O)(=O)Cc2ccc3c(c2)CNC3)cc1)c1ccc(F)cc1 (stereo not drawn) [H1262, 1-(1-(4-fluorophenyl)ethyl)-3-(4-((isoindolin-5-ylmethyl)sulfonyl)phenyl)urea] | 7.97 | 11.2 µL/min/mg | 8.12 | 0.099 | 0.05 | 18.2 µL/min/mg | < 4.52 | 1.13% | 307 L/kg | 1.69 L/kg | 21.8 mL/min/kg | 0.89 h | 1.92 h | PK CL p.o. ([10]; p.o.): 1847 mL/min/kg |
| COc1cc(S(=O)(=O)Cc2ccc3c(c2)CC(C)NC3)ccc1NC(=O)NC(C)c1ccccc1 (stereo not drawn) [H1441, 1-(2-methoxy-4-(((3-methyl-1,2,3,4-tetrahydroisoquinolin-6-yl)methyl)sulfonyl)phenyl)-3-(1-phenylethyl)urea] | 7.83 and 7.39 | 16.4 µL/min/mg | 8.37 and 8.48 | 0.0245 | 0.045 | 17.3 µL/min/mg | < 4.52 | – | – | – | – | – | – | – |
| C[C@H](NC(=O)Nc1ccc2c(c1)CC(c1ccc3c(c1)CNC3)S2(=O)=O)c1ccccc1 (stereo partly drawn) [H1264, 1-(2-(isoindolin-5-yl)-1,1-dioxido-2,3-dihydrobenzo[b]thiophen-5-yl)-3-((S)-1-phenylethyl)urea] | 8.36 | H < 10 M < 10 R = not reported D = not reported μL/min/mg | – | 0.221 | 0.185 | H < 10 M < 10 R = not reported D = not reported μL/min/mg | – | 0.36% | 627.9 L/kg | 4.83 L/kg | 48.2 mL/min/kg | 1.16 h | 0.64 h | – |
| COc1ccc([C@@H](C)NC(=O)Nc2ccc(S(=O)(=O)Cc3ccc4c(c3)CCN(C)C4)cc2)c(Cl)c1Cl [H1417, (R)-1-(1-(2,3-dichloro-4-methoxyphenyl)ethyl)-3-(4-(((2-methyl-1,2,3,4-tetrahydroisoquinolin-6-yl)methyl)sulfonyl)phenyl)urea] | 7.35 | 53.4 µL/min/mg | 8.01 | 0.0015 | 0.0012 | 48.9 µL/min/mg | < 4.52 | 11.80% | 24.97 L/kg | 4.74 L/kg | 26.2 mL/min/kg | 2.09 h | 1.27 h | PK CL p.o. ([10]; p.o.): 226.8 mL/min/kg |
| COc1cc(S(=O)(=O)Cc2ccc3c(c2)CNC3)ccc1NC(=O)NC(C)c1cccc2ccccc12.O=C(O)C(F)(F)F (stereo not drawn) [H1419, 1-(4-((isoindolin-5-ylmethyl)sulfonyl)-2-methoxyphenyl)-3-(1-(naphthalen-1-yl)ethyl)urea] | 8.36 | 45.1 µL/min/mg | 9.30 | 0.0041 | 0.0031 | 33.1 µL/min/mg | < 4.52 | – | – | – | – | – | – | – |
| CC(NC(=O)Nc1ccc(S(=O)(=O)Cc2ccc3c(c2)CNC3)cc1)c1ccccc1Cl.Cl (stereo not drawn) [H1261, 1-(1-(2-chlorophenyl)ethyl)-3-(4-((isoindolin-5-ylmethyl)sulfonyl)phenyl)urea] | 8.80 | 23 µL/min/mg | 8.66 | 0.045 | 0.019 | 48.8 µL/min/mg | < 4.52 | – | – | – | – | – | – | – |
